# Patent US11970480
# Where two headings read alike, the source gives them in different places.
# Assays:
# [1] = 21-membered ring
# [2] = amide bond, 2 steps
# [3] = from 5,5′-(propane-1,3-diylbis(oxy))bis(4-chloro-3-nitrobenzamide) + butane-1,4-diamine; snar bond; 15-membered ring; DIEA; DMSO; 714.0 mM; 120.0 °C; 2 steps
compound,measurement,setting,value
CCn1nc(C)c2c1C(=O)Nc1nc3cc(C(N)=O)ccc3n1CC=CCn1c(nc3cc(C(N)=O)ccc31)NC(=O)c1cc(C)nn1CCCCC2,"ring closure, isolated yield","[1]; from C=CCn1c(NC(=O)c2cc(C)nn2CCCCCc2c(C)nn(CC)c2C(=O)Nc2nc3cc(C(N)=O)ccc3n2CC=C)nc2cc(C(N)=O)ccc21, rcm bond, Hoveyda-Grubbs II (20 mol%), DCE, 2.69 mM, 100.0 °C",35%
same,"ring closure, yield of all isomers","from C=CCn1c(NC(=O)c2cc(C)nn2CCCCCc2c(C)nn(CC)c2C(=O)Nc2nc3cc(C(N)=O)ccc3n2CC=C)nc2cc(C(N)=O)ccc21, rcm bond, Hoveyda-Grubbs II, 1,2-dichloroethane, 2.69 mM, 100.0 °C, 4.0 h",35%
"8-Ethyl-10,17-dimethyl-7,19-dioxo-7,8,11,12,13,14,19,20,27,28,29,30-dodecahydro-6H-benzo[4,5]imidazo[1,2-a]benzo[4,5]imidazo[2,1-o]dipyrazolo[5,1-e:4′,3′-k][1,3,6,14,16]pentaazacycloicosine-3,23-dicarboxamide","ring closure, yield after HPLC","[2]; 20-membered ring, HATU/DIEA, NMP, 61.5 mM, 120.0 °C",2%
CCn1nc(C)c2c1C(=O)Nc1nc3cc(C(N)=O)ccc3n1CCCCn1c(nc3c(N(C)Cc4ccc(OC)cc4)cccc31)NC(=O)c1cc(C)nn1CCCCC2,"ring closure, isolated yield","[1]; from CCn1nc(C)c(CCCCCn2nc(C)cc2C(=O)Nc2nc3c(N(C)Cc4ccc(OC)cc4)cccc3n2CCCCn2c(N)nc3cc(C(N)=O)ccc32)c1C(=O)O, amide bond, EDC/HOBt/DMAP, DMF, 23.7 mM, 60.0 °C",20.4%
same,"ring closure, yield of all isomers","from CCn1nc(C)c(CCCCCn2nc(C)cc2C(=O)Nc2nc3c(N(C)Cc4ccc(OC)cc4)cccc3n2CCCCn2c(N)nc3cc(C(N)=O)ccc32)c1C(=O)O, amide bond, EDC/HOBt/DMAP, DMF, 23.7 mM, 60.0 °C, 32.0 h",20.4%
"(E)-8-Ethyl-1,26-dimethoxy-10,18-dimethyl-7,20-dioxo-6,7,8,11,12,13,14,15,20,21,28,31-dodecahydrobenzo[4,5]imidazo[1,2-a]benzo[4,5]imidazo[2,1-p]dipyrazolo[5,1-e:4′,3′-1][1,3,6,15,17]pentaazacyclohenicosine-3,24-dicarboxamide, bis trifluoroacetic acid salt","ring closure, yield after HPLC","[2]; 21-membered ring, HATU/TEA, DMF, 24.4 mM, 100.0 °C",1%
CCn1nc(C)c2c1C(=O)Nc1nc3cc(C(N)=O)ccc3n1CCCCn1c(nc3c(CNC(=O)OC(C)(C)C)cccc31)NC(=O)c1cc(C)nn1CCCCC2,"ring closure, isolated yield","[1]; from CCn1nc(C)c(CCCCCn2nc(C)cc2C(=O)Nc2nc3c(CNC(=O)OC(C)(C)C)cccc3n2CCCCn2c(N)nc3cc(C(N)=O)ccc32)c1C(=O)O, amide bond, EDC/HOBt/DIEA/DMAP, DMF, 18.2 mM, 60.0 °C",56%
same,"ring closure, yield of all isomers","from CCn1nc(C)c(CCCCCn2nc(C)cc2C(=O)Nc2nc3c(CNC(=O)OC(C)(C)C)cccc3n2CCCCn2c(N)nc3cc(C(N)=O)ccc32)c1C(=O)O, amide bond, EDC/HOBt, DIEA, cat. DMAP, DMF, 18.2 mM, 60.0 °C, 6.0 h",56%
NC(=O)c1cc2c(c([N+](=O)[O-])c1)NCCCCNc1c(cc(C(N)=O)cc1[N+](=O)[O-])OCCCO2,"ring closure, crude yield",[3],90%
2-amino-1-(3-(3-(2-(2-amino-5-carbamoyl-1H-benzo[d]imidazol-1-yl)ethyl)phenyl)-propyl)-1H-benzo[d]imidazole-5-carboxamide + 4-(5-(5-carboxy-3-methyl-1H-pyrazol-1-yl)pentyl)-1-ethyl-3-methyl-1H-pyrazole-5-carboxylic acid,"ring closure, yield after HPLC","[2]; the molecule shown is the open-chain precursor, 25-membered ring, HATU, NMP, 40.3 mM, 40.0 °C",0.6%
"8-Ethyl-10,18-dimethyl-7,20-dioxo-6,7,8,11,14,15,20,21,28,29,30,31-dodecahydrobenzo[4,5]imidazo[1,2-a]benzo[4,5]imidazo[2,1-p]dipyrazolo[5,1-e:4′,3′-1][1,3,6,15,17]pentaazacyclohenicosine-3,24-dicarboxamide","ring closure, yield after HPLC","[2]; 21-membered ring, HATU/DIEA, NMP, 92.4 mM, 80.0 °C",1.7%
"(1r,39r)-14-ethyl-16,25-dimethyl-12,28-dioxo-2,9,11,14,15,23,24,29,31,38-decaazaoctacyclo[37.2.2.0^2,^1^0.0^3,^8.0^13,^1^7.0^23,^2^7.0^3^0,^3^8.0^32,^3^7]tritetraconta-3,5,7,9,13(17),15,24,26,30,32,34,36-dodecaene-6,34-Dicarboxamide","ring closure, isolated yield","[1]; amide bond, HATU/DIEA, DMF, 116.0 mM, 80.0 °C, 2 steps",0.3%
"8-Ethyl-10,13,13,18-tetramethyl-7,20-dioxo-6,7,8,11,12,13,14,15,20,21,28,29,30,31-tetradecahydrobenzo[4,5]imidazo[1,2-a]benzo[4,5]imidazo[2,1-p]dipyrazolo[5,1-e:4′,3′-1][1,3,6,15,17]pentaazacyclohenicosine-3,24-dicarboxamide","ring closure, yield after HPLC","[2]; 21-membered ring, HATU, NMP, 51.0 mM, 40.0 °C",3.4%
"8-ethyl-10,18,30-trimethyl-7,20-dioxo-7,8,11,12,13,14,15,20,21,28,29,30,31,32-tetradecahydro-benzo[4,5]imidazo[2,1-b]benzo[4,5]imidazo[1,2-l]dipyrazolo[5,1-m:4′,3′-t][1,3,6,9,11,14]hexaazacyclodocosine-3,24-dicarboxamide","ring closure, yield after HPLC","[2]; 22-membered ring, HATU/DIEA, NMP, 68.9 mM, 140.0 °C",4.56%
"(E)-1,26-Dibromo-8-ethyl-10,18-dimethyl-7,20-dioxo-6,7,8,11,12,13,14,15,20,21,28,31-dodecahydrobenzo[4,5]imidazo[1,2-a]benzo[4,5]imidazo[2,1-p]dipyrazolo[5,1-e:4′,3′-1][1,3,6,15,17]pentaazacyclohenicosine-3,24-dicarboxamide","ring closure, isolated yield","[1]; amide bond, HATU/DIEA, DMF, 59.3 mM, 90.0 °C, 2 steps",24%
